US7868005B2, “Pyrazinyl substituted piperazine-piperidines with CXCR3 antagonist activity” (Schering Corporation, priority 2005, dated 2011)

What follows are molecules tested against T1, human CXCR3 (N-delta 4) (Homo sapiens, UniProt P49682) (assay: Human CXCR3 (N-delta 4) Scintillation Proximity Assay (SPA), [125I] IP-10 binding to Ba/F3-hCXCR3 membranes). Details: IC50 rating, Table 1; read-out: IC50.
T1 construct: CD8 leader (N); Flag; expressed in transfected cells; membranes prepared
T1 sequence (P49682 5-368 limits assumed): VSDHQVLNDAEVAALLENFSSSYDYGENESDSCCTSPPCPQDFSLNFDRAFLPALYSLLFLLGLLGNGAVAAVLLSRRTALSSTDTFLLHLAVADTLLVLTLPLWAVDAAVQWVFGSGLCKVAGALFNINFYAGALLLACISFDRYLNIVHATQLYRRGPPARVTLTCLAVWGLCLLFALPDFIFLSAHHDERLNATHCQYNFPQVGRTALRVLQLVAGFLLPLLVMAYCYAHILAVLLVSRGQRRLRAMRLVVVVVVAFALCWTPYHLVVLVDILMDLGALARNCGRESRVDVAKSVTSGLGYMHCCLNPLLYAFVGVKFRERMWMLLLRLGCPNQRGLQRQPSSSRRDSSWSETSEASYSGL

IC50 [nM]	SMILES
< 25	CC[C@H]1CN(c2ncc(C(N)=O)nc2C)CCN1C1CCN(C(=O)c2ccc(Cl)cc2)CC1 [compound 388]
< 25	CC[C@H]1CN(c2nc(N)c(C(=O)NC(=N)NC)nc2Cl)CCN1C1CCN(Cc2ccc(OC(F)(F)F)cc2)CC1 [compound 391]
< 25	CC[C@H]1CN(c2nc(N)c(C(=O)NC(=N)NC)nc2Cl)CCN1C1CCN(C(=O)c2ccc(F)c(F)c2)CC1 [compound 398]
< 25	CC[C@H]1CN(c2nc(N)c(C(=O)NC(=N)NC)nc2Cl)CCN1C1CCN(C(=O)c2ccc(C#N)cc2)CC1 [compound 399]
< 25	CC[C@H]1CN(c2nc(N)c(C(=O)NC(=N)NC)nc2Cl)CCN1C1CCN(C(=O)c2ccc(OC(F)(F)F)cc2)CC1 [compound 402]
> 100	CC[C@H]1CN(c2nc(N)c(C(N)=O)nc2Cl)CCN1C1CCN(Cc2ccc(Cl)cc2C2OC(=O)N(C)C2=O)CC1 (some centres unmarked) [compound 406]
< 25	CC[C@H]1CN(c2ncc(C(N)=O)nc2Cl)CCN1C1CCN(C(=O)c2ccc(Cl)c(OCCS(C)(=O)=O)c2)CC1 [compound 409]
< 25	CC[C@H]1CN(c2nc(N)c(C(=O)NCCO)nc2Cl)CCN1C1CCN(Cc2ccc(Cl)c(OCCS(C)(=O)=O)c2)CC1 [compound 410]
< 25	CC[C@H]1CN(c2nc(N)c(C(=O)NCCO)nc2Cl)CCN1C1CCN(Cc2ccc(F)c(OCCSC)c2)CC1 [compound 413]
< 25	CC[C@H]1CN(c2nc(N)c(C(=O)NCCO)nc2Cl)CCN1C1CCN(Cc2ccc(OCCSC)c(F)c2)CC1 [compound 415]
< 25	CC[C@H]1CN(c2ncc(C(N)=O)nc2C(F)(F)F)CCN1C1CCN(C(=O)c2ccc(Cl)cc2)CC1 [compound 416]
< 25	CC[C@H]1CN(c2nc(N)c(C(=O)NCCO)nc2Cl)CCN1C1CCN(Cc2ccc(F)c(OS(C)(=O)=O)c2)CC1 [compound 421]
25 to 100	CCc1nc(C(N)=O)cnc1N1CCN(C2CCN(C(=O)c3ccc(Cl)cc3)CC2)[C@@H](CC)C1 [compound 423]
> 100	CC[C@H]1CN(c2ncc(C(=O)NC3=NCCN3)nc2Cl)CCN1C1CCN(C(=O)c2ccc(Cl)cc2)CC1 [compound 424]
> 100	CC[C@H]1CN(c2cnc(C(N)=O)cn2)CCN1C1CCN(Cc2ccc(Cl)cc2)CC1 [compound 425]
> 100	CC[C@H]1CN(c2nc(N)c(C(=O)NCCO)nc2Cl)CCN1C1CCN(Cc2ccc(OS(C)(=O)=O)c(F)c2)CC1 [compound 426]
> 100	CC[C@H]1CN(c2nc(N)c(C(=O)NCCO)nc2Cl)CCN1C1CCN(Cc2ccc(O)c(F)c2)CC1 [compound 427]
< 25	CC[C@H]1CN(c2ncc(C(N)=O)nc2C)CCN1C1CCN(Cc2ccc(C)c(F)c2)CC1 [compound 433]
< 25	CC[C@H]1CN(c2ncc(C(=O)NC)nc2C)CCN1C1CCN(C(=O)c2ccc(F)cc2)CC1 [compound 435]
< 25	CC[C@H]1CN(c2ncc(C(=O)NC3CC3)nc2C)CCN1C1CCN(Cc2ccc(C)cc2)CC1 [compound 439]
< 25	CC[C@H]1CN(c2ncc(C(N)=O)nc2C)CCN1C1CCN(C(=O)c2ccc(Cl)cc2N)CC1 [compound 442]
< 25	CC[C@H]1CN(c2ncc(C(N)=O)nc2C)CCN1C1CCN([C@H](CO)c2ccc(Cl)cc2)CC1 [compound 444]
< 25	CC[C@H]1CN(c2ncc(C(N)=O)nc2C)CCN1C1CCN(Cc2ccc(C(F)(F)F)cc2)CC1 [compound 445]
< 25	CC[C@H]1CN(c2ncc(C(=O)NC3CC3)nc2C)CCN1C1CCN(C(=O)c2ccc(C)cc2)CC1 [compound 446]
< 25	CC[C@H]1CN(c2ncc(C(N)=O)nc2C)[C@H](C)CN1C1CCN([C@@H](CO)c2ccc(Cl)cc2)CC1 [compound 453]
< 25	CC[C@H]1CN(c2ncc(C(=O)NC)nc2C)CCN1C1CCN(C(=O)c2ccc(Cl)c(F)c2)CC1 [compound 454]
< 25	CC[C@H]1CN(c2ncc(C(=O)NC)nc2C)CCN1C1CCN(C(=O)c2ccc(Cl)cc2F)CC1 [compound 455]
< 25	CC[C@H]1CN(c2ncc(C(N)=O)nc2Cl)CCN1C1CCN([C@H](CO)c2ccc(Cl)cc2)CC1 [compound 458]
< 25	CC[C@H]1CN(c2ncc(C(=O)NC3CC3)nc2C)CCN1C1CCN(C(=O)c2ccc(C)c(F)c2)CC1 [compound 459]
< 25	CC[C@H]1CN(c2ncc(C(=O)NC3CC3)nc2C)CCN1C1CCN(C(=O)c2ccc(Cl)cc2)CC1 [compound 460]

The remaining lines, values behind:

SMILES	IC50 [nM]
CC[C@H]1CN(c2nc(N)c(C(=O)NC(=N)NC)nc2Cl)CCN1C1CCN(Cc2ccc(Cl)c(F)c2)CC1 [compound 389]	< 25
CC[C@H]1CN(c2nc(N)c(C(=O)NC(=N)NC)nc2Cl)CCN1C1CCN(Cc2ccc(Cl)cc2)CC1 [compound 390]	< 25
CC[C@H]1CN(c2nc(N)c(C(=O)NC(=N)NC)nc2Cl)CCN1C1CCN(C(=O)c2ccc(Cl)c(F)c2)CC1 [compound 392]	< 25
CC[C@H]1CN(c2nc(N)c(C(=O)NC(=N)NC)nc2Cl)CCN1C1CCN(C(=O)c2ccc(Cl)cc2)CC1 [compound 393]	< 25
CC[C@H]1CN(c2nc(N)c(C(=O)NCCO)nc2Cl)CCN1C1CCN(Cc2ccc(F)c(OC)c2)CC1 [compound 394]	< 25
CC[C@H]1CN(c2ncc(C(N)=O)nc2Cl)CCN1C1CCN(Cc2ccc(Cl)cc2[C@H](O)C(N)=O)CC1 [compound 396]	< 25
CC[C@H]1CN(c2nc(N)c(C(=O)NCCO)nc2Cl)CCN1C1CCN(Cc2ccc(OC)c(F)c2)CC1 [compound 397]	< 25
CC[C@H]1CN(c2nc(N)c(C(N)=O)nc2Cl)CCN1C1CCN(Cc2ccc(Cl)cc2S(N)(=O)=O)CC1 [compound 401]	< 25
CC[C@H]1CN(c2nc(N)c(C(N)=O)nc2Cl)CCN1C1CCN(Cc2ccc(Cl)cc2C2NC(=O)NC2=O)CC1 (some centres unmarked) [compound 405]	> 100
CC[C@H]1CN(c2nc(N)c(C(N)=O)nc2Cl)CCN1C1CCN(Cc2ccc(Cl)cc2C2OC(=O)NC2=O)CC1 (some centres unmarked) [compound 407]	> 100
CC[C@H]1CN(c2ncc(C(N)=O)nc2C)CCN1C1CCN(C(=O)c2ccc(F)c(F)c2)CC1 [compound 408]	25 to 100
CC[C@H]1CN(c2nc(N)c(C(N)=O)nc2Cl)CCN1C1CCN(Cc2ccc(Cl)c(OCCS(C)(=O)=O)c2)CC1 [compound 411]	< 25
CC[C@H]1CN(c2ncc(C(N)=O)nc2C)CCN1C1CCN(Cc2ccc(Cl)cc2)CC1 [compound 412]	< 25
CC[C@H]1CN(c2ncc(C(N)=O)nc2C)[C@H](C)CN1C1CCN(C(=O)c2ccc(Cl)cc2)CC1 [compound 417]	< 25
CC[C@H]1CN(c2nc(N)c(C(=O)NCCO)nc2Cl)CCN1C1CCN(C(=O)c2ccc(F)c(O)c2)CC1 [compound 419]	< 25
CC[C@H]1CN(c2nc(N)c(C(=O)NC3CC3)nc2Cl)CCN1C1CCN(Cc2ccc(Cl)cc2S(C)(=O)=O)CC1 [compound 420]	< 25
CC[C@H]1CN(c2nc(N)c(C(=O)NCCO)nc2Cl)CCN1C1CCN(Cc2ccc(Cl)cc2S(C)(=O)=O)CC1 [compound 422]	< 25
CC[C@H]1CN(c2nc(N)c(C(N)=O)nc2Cl)CCN1C1CCN(Cc2ccc(O)c(F)c2)CC1 [compound 428]	> 100

SMILES	IC50 [nM]
CC[C@H]1CN(c2nc(N)c(C(N)=O)nc2Cl)CCN1C1CCN(Cc2ccc(Cl)cc2S(=O)(=O)NC)CC1 [compound 429]	> 100
CC[C@H]1CN(c2nc(N)c(C(=O)NCCO)nc2Cl)CCN1C1CCN(C(=O)c2ccc(CS(C)(=O)=O)cc2)CC1 [compound 430]	> 100
CC[C@H]1CN(c2ncc(C(N)=O)nc2C)CCN1C1CCN(Cc2ccc(F)cc2)CC1 [compound 431]	< 25
CC[C@H]1CN(c2ncc(C(N)=O)nc2C)[C@H](C)CN1C1CCN(Cc2ccc(F)cc2)CC1 [compound 432]	< 25
CC[C@H]1CN(c2ncc(C(N)=O)nc2C)[C@H](C)CN1C1CCN(Cc2ccc(C#N)cc2)CC1 [compound 434]	< 25
CC[C@H]1CN(c2ncc(C(=O)NC)nc2C)CCN1C1CCN(C(=O)c2ccc(Cl)cc2)CC1 [compound 437]	< 25
CC[C@H]1CN(c2cnc(C(N)=O)cn2)CCN1C1CCN([C@@H](CO)c2ccc(Cl)cc2)CC1 [compound 438]	< 25
CC[C@H]1CN(c2ncc(C(=O)NC3CC3)nc2C)CCN1C1CCN(Cc2ccc(F)cc2)CC1 [compound 440]	< 25
CC[C@H]1CN(c2ncc(C(N)=O)nc2C)CCN1C1CCN([C@@H](CO)c2ccc(Cl)cc2)CC1 [compound 443]	< 25
CC[C@H]1CN(c2ncc(C(=O)NC3CC3)nc2C)CCN1C1CCN(C(=O)c2ccc(F)cc2)CC1 [compound 447]	< 25
CC[C@H]1CN(c2ncc(C(=O)NC3CC3)nc2C)CCN1C1CCN(Cc2ccc(C)c(F)c2)CC1 [compound 448]	< 25
CC[C@H]1CN(c2ncc(C(=O)NC3CC3)nc2C)CCN1C1CCN(Cc2ccc(Cl)cc2)CC1 [compound 449]	< 25
CC[C@H]1CN(c2ncc(C(=O)NC3CC3)nc2C)CCN1C1CCN(Cc2ccc(F)c(F)c2)CC1 [compound 450]	< 25
CCNC(=O)c1cnc(N2CCN(C3CCN(C(=O)c4ccc(Cl)cc4)CC3)[C@@H](CC)C2)c(C)n1 [compound 451]	< 25
CC[C@H]1CN(c2ncc(C(=O)NC)nc2C)[C@H](C)CN1C1CCN(C(=O)c2ccc(Cl)cc2)CC1 [compound 452]	< 25
CC[C@H]1CN(c2ncc(C(=O)NC)nc2C)CCN1C1CCN(C(=O)c2ccc(F)c(Cl)c2)CC1 [compound 456]	< 25
CC[C@H]1CN(c2ncc(C(N)=O)nc2Cl)CCN1C1CCN([C@@H](CO)c2ccc(Cl)cc2)CC1 [compound 457]	< 25
